Experimental findings from BindingDB's records for doi:10.1021/ml5001867 (Abbvie, 2014) are described below.

A short description of this test: Inhibition of BCL-XL (unknown origin) expressed in mcl-1 deficient MEF assessed as induction of cell killing incubated for 48 hrs in presence of 10% FBS by Cell titerGlo reagent based assay.
Consider `O=C(Nc1nc2ccccc2s1)c1cccc2c1CN(c1nc(C(=O)O)c(CCCOc3cccc(-n4ncc5cncnc54)c3)s1)CC2`, for which the EC50 – broadly, the concentration needed to bring the measured effect to its halfway point – is more than 5000 nM. The value for `O=C(Nc1nc2ccccc2s1)c1cccc2c1CN(c1nc(C(=O)O)c(CCOc3cccc(-n4ncc5cncnc54)c3)s1)CC2` was more than 5000 nM; that for `CN1CCN(CCCNc2ncnc3c2cnn3-c2ccc(OCCCc3sc(N4CCc5cccc(C(=O)Nc6nc7ccccc7s6)c5C4)nc3C(=O)O)cc2)CC1` was 20 nM; that for `CN(C)CCCNc1ncnc2c1cnn2-c1ccc(OCCCc2sc(N3CCc4cccc(C(=O)Nc5nc6ccccc6s5)c4C3)nc2C(=O)O)cc1` was 10 nM. In the case of `O=C(Nc1nc2ccccc2s1)c1cccc2c1CN(c1nc(C(=O)O)c(CCCOc3ccc(-n4cccn4)cc3)s1)CC2`, the EC50 is 640 nM. Turning to `O=C(Nc1nc2ccccc2s1)c1cccc2c1CN(c1nc(C(=O)O)c(CCCCOc3ccc(-n4ncc5cncnc54)cc3)s1)CC2`, the concentration giving a half-maximal response (EC50) is more than 5000 nM. To `O=C(Nc1nc2ccccc2s1)c1cccc2c1CN(c1nc(C(=O)O)c(CCCOc3ccc(-n4ncc5cncnc54)cc3)s1)CC2` belongs 60 nM; to `O=C(Nc1nc2ccccc2s1)c1cccc2c1CN(c1nc(C(=O)O)c(CCOc3ccc(-n4ncc5cncnc54)cc3)s1)CC2`, more than 5000 nM.
